According to article PMC9693223 (Molecules, 2022):
Several values for one entry are separate records, joined by “and”; a condition that tells them apart may be missing. Equal entries are not always repeated. Where two headings read alike, the source gives them in different places.

Legend:
[1] = target: P2/TbAT1 aminopurine transporter; settings: T. brucei P2; ref [16],[17]; cited from earlier work
P1 transporter = settings: T. brucei P1; ref [16],[17]; cited from earlier work
[2] = system: L. mexicana Cas9 promastigotes; assay: Alamar blue drug sensitivity assay, L. mexicana Cas9 promastigotes; type: cell-based, Leishmania mexicana; settings: Leishmania mexicana, 120 h, 72 h + 48 h resazurin, at least 3 independent determinations, read-out: EC50 (µM) AVG ± SEM, Cas9
Description: We used L. mexicana promastigotes of the Cas9 strain developed by Beneke at al. to generate the ΔNT1 strain, and from there the Cas9^ΔNT1+TcrNT2 (see below); The original Cas9 strain was generously donated by Prof. Eva Gluenz (University of Bern, Switzerland). All strains in standard HOMEM (GIBCO, Life Technologies, Paisley, UK) supplemented with 10% heat-inactivated fetal bovine serum (FBS; PAA Laboratories, Linz, Austria) and 1% of a penicillin–streptomycin solution (10,000 U mL^−1 each; Life Technologies) at 25 °C, as described.
The Alamar blue assay (resazurin sodium salt) was used to determine the drug sensitivity of the L. mexicana promastigotes in vitro. The assay is based on the reduction of resazurin sodium salt (blue and non-fluorescent) to resorufin (pink color and fluorescent) by live cells. HOMEM medium with 10% FBS (100 μL) was added to all wells of a white 96-well plate apart from the first well. 200 μL of a known concentration of test compounds was diluted in HOMEM medium and placed in the first well. Compounds were tested in one plate and every compound was diluted over two rows (23 concentrations), leaving the last well of every dilution as a negative control having 100 μL HOMEM medium. Next, 100 μL of L. mexicana culture at a density of 2 × 10^6 cells mL^−1 was added into every well in the plate and incubated for 72 h at a temperature of 25 °C after which resazurin sodium salt (Sigma) (20 μL of a solution of 12.5 mg in 100 mL PBS) was added and the plate was incubated under the same conditions for a further 48 h. Fluorescence was measured in a FLUOstar OPTIMA plate reader (BMG Labtech, Germany), at a wavelength of 544 nm for excitation and 620 nm for emission. The EC50 values and fluorescence data were determined and plotted by the GraphPad Prism 8 Software using an equation for a sigmoid curve with variable slope. Pentamidine was used as positive control and every experiment was performed 3–4 times independently.

TcrNT2 [3] = target: T1, TcrNT2 (Trypanosoma cruzi, UniProt Q4DHG0); assay: Transport of [^3H]-thymidine by TcrNT2 expressed in L. mexicana Cas9^ΔNT1 (Km, inhibition); type: cell-based; settings: for ΔG° (Gibbs free energy of interaction): calculated from Km or Ki at 25 °C
Experimental: These values can be used to calculate the Gibbs free energy of interaction ΔG°, but these experiments cannot distinguish between the test compound being transported or merely binding to the transporter and inhibiting the transit of the [^3H]-thymidine.
Transport assays were conducted with radiolabeled nucleosides [methyl-^3H]-thymidine (20 Ci/mmol; PerkinElmer (Waltham, MA, USA)) and [2,8-^3H]-adenosine (40 Ci/mmol; American Radiolabeled Chemicals (ARC, St-Louis, MO, USA)). Cells were harvested from mid-log phase cultures by centrifugation and washed into an assay buffer (AB) as described, at a density of 1 × 10^8 cells mL^−1. Transport assays were then performed exactly as described previously, using an oil-stop protocol. Briefly, 100 µL of cell suspension (10^7 cells) was mixed with 100 µL of [^3H]-substrate at 2 × final concentration and incubated for a pre-set time prior to the addition of 800 µL of ice-cold AB containing a saturating concentration of unlabeled permeant (usually 1 or 2.5 mM) and immediate centrifugation through an oil layer to separate cells from extracellular radiolabel. The 100 µL of [^3H]-substrate could also contain unlabeled substrate or an inhibitor at 2 × concentration, as appropriate. Next, the microfuge tubes were flash frozen in liquid nitrogen; the tips with the cell pellets cut off and collected in scintillation tubes. Cells were solubilized by incubation in 2% SDS under gentle shaking on a rocking platform prior to the addition of scintillation fluid (Scintilogic U, Lablogic, Sheffield, UK). The tubes stored in the dark overnight before counting in a 300SL Hidex Scintillation Counter (Lablogic).
Michaelis-Menten constants (Km) were calculated by plotting transport rates of [^3H]-substrate against the concentration, using the Michaelis-Menten equation V0 = Vmax([substrate]/([substrate] + Km)) and non-linear regression in GraphPad Prism 8. Inhibition constants (Ki) were calculated using the Cheng-Prusoff equation: Ki = IC50/(1 + (L/Km)), where L represents the radiolabel concentration. The IC50 was obtained by a non-linear regression of the inhibition curve of transport rate versus inhibitor concentration, using an equation for a sigmoid curve with variable slope (GraphPad Prism 8). The Gibbs free energy ΔG° was obtained using the equation ΔG° = −RTln(Ki), in which R is the gas constant and T is the absolute temperature. As discussed previously, these equations apply to competitive rather than non-competitive inhibition. Given that only close analogues of the substrate were used as potential inhibitors and that Hill slopes were consistently close to −1, it is very likely that inhibition was indeed competitive.

[4] = system: L. mexicana Cas9^ΔNT1 promastigotes; set-up: method as in de Almeida Fiuza et al. [41]; settings: L. mexicana Cas9^ΔNT1 promastigotes; starred values; ref de Almeida Fiuza et al. [41]; read-out: EC50 (µM) AVG ± SEM, L. mexicana Cas9^ΔNT1; cited from earlier work
[5] = system: intracellular T. cruzi amastigotes; settings: T. cruzi in vitro; ref [16]; read-out: EC50 against T. cruzi in vitro; cited from earlier work
[6] = system: L. mexicana Cas9^ΔNT1+TcrNT2 promastigotes; set-up: method as in de Almeida Fiuza et al. [41]; settings: L. mexicana Cas9^ΔNT1+TcrNT2 promastigotes; starred values; ref de Almeida Fiuza et al. [41]; read-out: EC50 (µM) AVG ± SEM, L. mexicana Cas9^ΔNT1+TcrNT2; cited from earlier work
[7] = system: L. mexicana Cas9 promastigotes; set-up: method as in de Almeida Fiuza et al. [41]; settings: starred values, ref de Almeida Fiuza et al. [41], read-out: EC50 (µM) AVG ± SEM, Cas9; cited from earlier work
TcrNT2 [8] = target: T1, TcrNT2; settings: TcrNT2 expressed in T. brucei, cited from earlier work
[9] = system: L. mexicana Cas9^ΔNT1 promastigotes; assay: Transport of [^3H]-thymidine by L. mexicana Cas9^ΔNT1 promastigotes; type: cell-based, Leishmania mexicana; settings: 0.05 µM [^3H]-thymidine, Cas9^ΔNT1 cells, over 180 s
Experimental: It is well documented that the NT1 transport activity is responsible for the uptake of adenosine and of pyrimidine nucleosides in Leishmania spp.. […] We thus assessed the uptake of these two nucleosides in Cas9^ΔNT1. […] In contrast, the transport of 0.1 µM of [^3H]-adenosine by L. mexicana Cas9^ΔNT1 promastigotes was virtually abolished and became statistically identical to the uptake in the presence of 1 mM unlabeled adenosine (p > 0.05).
Figure 1 [^3H]-Adenosine and [^3H]-Thymidine transport by L. mexicana Cas9 and L. mexicana Cas9^ΔNT1. (A). Transport of 0.1 µM of [^3H]-adenosine by L. mexicana Cas9 and L. mexicana Cas9^ΔNT1 was measured over 20 s in the presence or absence of 1 mM unlabeled adenosine. (B). Transport of 0.05 μM of [^3H]-thymidine by L. mexicana Cas9 and L. mexicana Cas9^ΔNT1 was measured over 180 s in the presence or absence of 1 mM unlabeled thymidine, respectively. Symbols represent the average of triplicate determinations in a single representative experiment and error bars represent ± SEM.
Transport assays were conducted with radiolabeled nucleosides [methyl-^3H]-thymidine (20 Ci/mmol; PerkinElmer (Waltham, MA, USA)) and [2,8-^3H]-adenosine (40 Ci/mmol; American Radiolabeled Chemicals (ARC, St-Louis, MO, USA)). Cells were harvested from mid-log phase cultures by centrifugation and washed into an assay buffer (AB) as described, at a density of 1 × 10^8 cells mL^−1. […]

NT1 transport activity = system: NT1 transport activity; set-up: method as in PMID 28453984; settings: NT1 transport activity in L. mexicana; ref [36]; cited from earlier work

T1 sequence (Q4DHG0 entry or part of it): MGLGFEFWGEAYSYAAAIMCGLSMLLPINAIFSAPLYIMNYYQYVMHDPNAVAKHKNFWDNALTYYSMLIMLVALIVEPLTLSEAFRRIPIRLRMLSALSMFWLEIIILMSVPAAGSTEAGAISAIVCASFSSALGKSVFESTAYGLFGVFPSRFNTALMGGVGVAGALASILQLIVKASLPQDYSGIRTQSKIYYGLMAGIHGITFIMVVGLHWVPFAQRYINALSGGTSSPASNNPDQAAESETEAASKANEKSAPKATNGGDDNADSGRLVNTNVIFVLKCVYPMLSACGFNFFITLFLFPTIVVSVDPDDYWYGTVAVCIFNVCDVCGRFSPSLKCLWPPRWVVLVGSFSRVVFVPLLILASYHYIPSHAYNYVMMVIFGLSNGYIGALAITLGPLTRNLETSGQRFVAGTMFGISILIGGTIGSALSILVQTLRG

SMILES | Ki [1] [µM] | Ki (P1 transporter) [µM] | EC50 [2] [µM] | Ki (TcrNT2 [3]) [µM] | ΔG° (Gibbs free energy of interaction) (TcrNT2 [3]) [kcal/mol] | EC50 [4] [µM] | EC50 [5] [µM] | EC50 [6] [µM] | EC50 [7] [µM] | Ki (TcrNT2 [8]; earlier characterization, ref Campagnaro et al. [30], read-out: Ki on thymidine transport by TcrNT2) [µM] | δ(ΔG°) with respect to ΔG° of thymidine (TcrNT2 [3]; change in ΔG° relative to thymidine) [kcal/mol] | rate of [^3H]-thymidine transport [9] | Km (TcrNT2 [8]; ref [30], read-out: Km of thymidine uptake by TcrNT2) | Km (NT1 transport activity) [µM]
Nc1ncnc2c1c(-c1ccccn1)cn2[C@@H]1O[C@H](CO)[C@@H](O)[C@H]1O [7-(2-pyridyl)-tubercidin] | < 5 | < 5 |  |  |  |  |  |  |  |  |  |  |  | 
Nc1ncnc2c1c(Br)cn2[C@@H]1O[C@H](CO)[C@@H](O)[C@H]1O [TH1003, 7-bromo-tubercidin] | < 5 | < 5 | 0.16 ± 0.018 | 784 ± 41 | -4.73 |  |  |  |  |  |  |  |  | 
Nc1ncnc2c1ccn2[C@@H]1O[C@H](CO)[C@@H](O)[C@H]1O [Tubercidin, tubercidin] |  |  | 0.43 ± 0.15 | 852 ± 2 | -4.18 | 25.7 ± 0.94 | 0.34 | 0.82 ± 0.13 | 1.02 ± 0.16 | 700 ± 110 | -4.78 |  |  | 
Cc1cn([C@H]2C[C@H](O)[C@@H](CO)O2)c(=O)[nH]c1=O [thymidine] |  |  |  |  | -8.96 |  |  |  |  |  |  | 0.00004 ± 0.000006 pmol(10^7 cells)^−1 s^−1 | ~0.2 µM and 0.223 µM and 0.22 µM | 11.2 ± 2.4
